Laboratory results taken from patent US12472272B2, “Radiolabelled compounds for diagnosis or treatment of prostate-specific membrane antigen- expressing cancer” (PROVINCIAL HEALTH SERVICES AUTHORITY, priority 2019, dated 2025).

Assays:
[1] = system: PSMA-expressing LNCAP cancer xenografts; assay: Biodistribution of ^68Ga-labeled PSMA-targeting tracers; type: in vivo, mice
Protocol: (§1) Imaging and biodistribution experiments were performed using NODSCID 1L2RγKO male mice. Mice were anesthetized by inhalation with 2% isoflurane in oxygen, and implanted subcutaneously with 1×10^7 LNCaP cells behind left shoulder. Mice were imaged or used in biodistribution studies when the tumor grew up to reach 5-8 mm in diameter during 5-6 weeks.
(§2) PET imaging experiments were conducted using Siemens Inveon micro PET/CT scanner. Each tumor bearing mouse was injected 6-8 MBq of Ga-68 labeled tracer through the tail vein under anesthesia (2% isoflurane in oxygen). The mice were allowed to recover and roam freely in their cage. After 50 min, the mice were sedated again with 2% isoflurane in oxygen inhalation and positioned in the scanner. A 10-min CT scan was conducted first for localization and attenuation correction after segmentation for reconstructing the PET images. Then, a 10-min static PET imaging was performed to determined uptake in tumor and other organs. The mice were kept warm by a heating pad during acquisition. For imaging studies acquired at 3 h post-injection (p.i.), the mice were placed in the micro PET/CT scanner at 170 min p.i. Then, the CT acquisitions were conducted as described above, a 15-min static PET imaging was performed to determined uptake in tumor and other organs.
For biodistribution studies, the mice were injected with the radiotracer as described above. At predetermined time points (1 or 3 h for ^68Ga studies; 1, 4, 24, 72, or 120 h for ^177Lu studies), the mice was anesthetized with 2% isoflurane inhalation, and euthanized by CO2 inhalation. Blood was withdrawn immediately from the heart, and the organs/tissues of interest were collected. The collected organs/tissues were weighed and counted using a Perkin Elmer (Waltham, MA) Wizard2 2480 gamma counter. The uptake in each organ/tissue was normalized to the injected dose using a standard curve, and expressed as the percentage of the injected dose per gram of tissue (% ID/g).

LNCaP tumors = assay: PET/CT imaging of ^68Ga-labeled tracers; type: in vivo, mice; conditions: FIG. 3
Protocol: as §1, §2

## O=C([O-])CN1CCN(CC(=O)[O-])CCN(CC(=O)NC[C@H]2CC[C@H](C(=O)N[C@@H](Cc3ccc4ccc5cccc6ccc3c4c56)C(=O)NCCCC[C@H](NC(=O)N[C@@H](CCC(=O)O)C(=O)O)C(=O)O)CC2)CCN(CC(=O)[O-])CC1.[68Ga+3] [^68Ga-HTK03029]
[1]; 1 h post-injection
  Tissue (% ID/g): Adrenal glands: 4.91 ± 1.57 % ID/g
  Tissue (% ID/g): Blood: 3.93 ± 0.91 % ID/g
  Tissue (% ID/g): Bone: 0.92 ± 0.14 % ID/g
  Tissue (% ID/g): Brain: 0.09 ± 0.02 % ID/g
  Tissue (% ID/g): Fat: 1.57 ± 0.42 % ID/g
  Tissue (% ID/g): Heart: 1.25 ± 0.27 % ID/g
  Tissue (% ID/g): Intestine: 0.77 ± 0.11 % ID/g
  Tissue (% ID/g): Kidneys: 198 ± 49.3 % ID/g
  Tissue (% ID/g): Lacrimal: 1.06 ± 0.49 % ID/g
  Tissue (% ID/g): Liver: 1.32 ± 0.63 % ID/g
  Tissue (% ID/g): Lungs: 3.59 ± 0.69 % ID/g
  Tissue (% ID/g): Muscle: 0.63 ± 0.10 % ID/g
  Tissue (% ID/g): Pancreas: 0.94 ± 0.18 % ID/g
  Tissue (% ID/g): Salivary: 3.27 ± 1.02 % ID/g
  Tissue (% ID/g): Seminal: 6.74 ± 10.7 % ID/g
  Tissue (% ID/g): Spleen: 7.08 ± 5.08 % ID/g
  Tissue (% ID/g): Stomach: 0.31 ± 0.08 % ID/g
  Tissue (% ID/g): Tail: 2.18 ± 0.65 % ID/g
  Tissue (% ID/g): Testes: 1.02 ± 0.13 % ID/g
  Tissue (% ID/g): Thyroid: 1.57 ± 0.32 % ID/g
  Tissue (% ID/g): Tumor: 13.9 ± 6.58 % ID/g
  Tissue (% ID/g): Urine: 175 ± 178 % ID/g
  tumor-to-background contrast ratio Tumor: Blood: 3.39 ± 1.01
  tumor-to-background contrast ratio Tumor: Muscle: 21.3 ± 7.50
  tumor-to-background contrast ratio Tumor: kidney: 0.07 ± 0.02
[1]; 1 h post-injection, listed as 68Ga-labeled HTK03029
  Tissue (% ID/g): Tumor: ~13 % ID/g
LNCaP tumors
  uptake in PET/CT images: higher uptake was observed in LNCap tumor xenografts, kidneys and urinary bladders

## O=C([O-])CN1CCN(CC(=O)[O-])CCN(CC(=O)NC[C@H]2CC[C@H](C(=O)N[C@@H](Cc3c4ccccc4cc4ccccc34)C(=O)NCCCC[C@H](NC(=O)N[C@@H](CCC(=O)O)C(=O)O)C(=O)O)CC2)CCN(CC(=O)[O-])CC1.[68Ga+3] [^68Ga-HTK03041]
[1]; 1 h post-injection
  Tissue (% ID/g): Adrenal glands: 8.90 ± 2.56 % ID/g
  Tissue (% ID/g): Blood: 1.43 ± 0.30 % ID/g
  Tissue (% ID/g): Bone: 1.29 ± 0.45 % ID/g
  Tissue (% ID/g): Brain: 0.10 ± 0.05 % ID/g
  Tissue (% ID/g): Fat: 2.06 ± 0.59 % ID/g
  Tissue (% ID/g): Heart: 1.82 ± 0.21 % ID/g
  Tissue (% ID/g): Intestine: 1.14 ± 0.18 % ID/g
  Tissue (% ID/g): Kidneys: 170 ± 26.4 % ID/g
  Tissue (% ID/g): Lacrimal: 2.44 ± 1.79 % ID/g
  Tissue (% ID/g): Liver: 1.38 ± 0.25 % ID/g
  Tissue (% ID/g): Lungs: 4.32 ± 0.62 % ID/g
  Tissue (% ID/g): Muscle: 0.75 ± 0.09 % ID/g
  Tissue (% ID/g): Pancreas: 1.47 ± 0.16 % ID/g
  Tissue (% ID/g): Salivary: 4.99 ± 0.88 % ID/g
  Tissue (% ID/g): Seminal: 1.03 ± 0.27 % ID/g
  Tissue (% ID/g): Spleen: 8.95 ± 3.22 % ID/g
  Tissue (% ID/g): Stomach: 0.41 ± 0.11 % ID/g
  Tissue (% ID/g): Tail: 1.36 ± 0.45 % ID/g
  Tissue (% ID/g): Testes: 1.34 ± 0.22 % ID/g
  Tissue (% ID/g): Thyroid: 2.48 ± 0.44 % ID/g
  Tissue (% ID/g): Tumor: 23.1±6.11 % ID/g
  Tissue (% ID/g): Urine: 173 ± 93.01 % ID/g
  tumor-to-background contrast ratio Tumor: Blood: 17.3 ± 7.24
  tumor-to-background contrast ratio Tumor: Muscle: 31.6 ± 12.1
  tumor-to-background contrast ratio Tumor: kidney: 0.14 ± 0.04
[1]; 3 h post-injection
  Tissue (% ID/g): Adrenal glands: 4.04 ± 1.20 % ID/g
  Tissue (% ID/g): Blood: 0.83 ± 0.27 % ID/g
  Tissue (% ID/g): Bone: 0.98 ± 0.40 % ID/g
  Tissue (% ID/g): Brain: 0.06 ± 0.02 % ID/g
  Tissue (% ID/g): Fat: 1.06 ± 0.20 % ID/g
  Tissue (% ID/g): Heart: 0.93 ± 0.17 % ID/g
  Tissue (% ID/g): Intestine: 0.67 ± 0.09 % ID/g
  Tissue (% ID/g): Kidneys: 121 ± 37.6 % ID/g
  Tissue (% ID/g): Lacrimal: 2.82 ± 3.84 % ID/g
  Tissue (% ID/g): Liver: 0.82 ± 0.15 % ID/g
  Tissue (% ID/g): Lungs: 2.14 ± 0.39 % ID/g
  Tissue (% ID/g): Muscle: 0.40 ± 0.06 % ID/g
  Tissue (% ID/g): Pancreas: 0.71 ± 0.12 % ID/g
  Tissue (% ID/g): Salivary: 2.11 ± 0.57 % ID/g
  Tissue (% ID/g): Seminal: 4.56 ± 9.00 % ID/g
  Tissue (% ID/g): Spleen: 4.19 ± 1.58 % ID/g
  Tissue (% ID/g): Stomach: 0.26 ± 0.06 % ID/g
  Tissue (% ID/g): Tail: 0.86 ± 0.73 % ID/g
  Tissue (% ID/g): Testes: 0.89 ± 0.12 % ID/g
  Tissue (% ID/g): Thyroid: 1.19 ± 0.23 % ID/g
  Tissue (% ID/g): Tumor: 28.2±9.17 % ID/g
  Tissue (% ID/g): Urine: 171 ± 93.3 % ID/g
  tumor-to-background contrast ratio Tumor: Blood: 36.6 ± 15.4
  tumor-to-background contrast ratio Tumor: Muscle: 73.8 ± 30.9
  tumor-to-background contrast ratio Tumor: kidney: 0.26 ± 0.13
LNCaP tumors
  uptake in PET/CT images: higher uptake was observed in LNCap tumor xenografts, kidneys and urinary bladders
